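Growth conditions: 96-well plates. Treatment: test compound, 48 hours, 5 concentrations. Analysis: linear interpolation between bracketing concentrations; unreached endpoints set to highest concentration. Abbreviation: GI50, concentration required for 50% inhibition of growth.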 Activity calls are given as the source filed them. Cut-off read from the data, not from the text of the source: active = GI50 up to about 1.1 µM and inactive = higher.
Assays:
Test in all cases: NCI-60 cell line screen, 48 h
CAKI-1 = tested on: CAKI-1
DU-145 = tested on: DU-145
HCT-116 = tested on: HCT-116
HCT-15 = tested on: HCT-15
HOP-92 = tested on: HOP-92
K562 = tested on: K562
LOX IMVI = tested on: LOX IMVI
MDA-MB-231 = tested on: MDA-MB-231
MDA-N = tested on: MDA-N
NCI-H23 = tested on: NCI-H23
OVCAR-3 = tested on: OVCAR-3
OVCAR-4 = tested on: OVCAR-4
OVCAR-5 = tested on: OVCAR-5
PC-3 = tested on: PC-3
SK-MEL-5 = tested on: SK-MEL-5
SN12C = tested on: SN12C
SW-620 = tested on: SW-620
U-251 = tested on: U-251
UACC-62 = tested on: UACC-62

Row | SMILES | GI50 (CAKI-1) | GI50 (DU-145) | GI50 (HCT-116) | GI50 (HCT-15) | GI50 (HOP-92) | GI50 (K562) | GI50 (LOX IMVI) | GI50 (MDA-MB-231) | GI50 (MDA-N) | GI50 (NCI-H23) | GI50 (OVCAR-3) | GI50 (OVCAR-4) | GI50 (OVCAR-5) | GI50 (PC-3) | GI50 (SK-MEL-5) | GI50 (SN12C) | GI50 (SW-620) | GI50 (U-251) | GI50 (UACC-62)
1 | COc1ccc2c(c1)/C(=C\c1c(Cl)nc3n1CCS3)C(=O)N2 | 7.48 µM (inactive) | 11.8 µM (inactive) | 3.73 µM (inactive) | 3.84 µM | 46.5 µM (inactive) | 3.02 µM (inactive) | 9.71 µM (inactive) | 5.14 µM (inactive) | 1.48 µM (inactive) | 11.2 µM (inactive) | 2.77 µM (inactive) | 11.9 µM (inactive) | 13.5 µM (inactive) | 3.36 µM (inactive) | 5.06 µM (inactive) | 10.8 µM (inactive) | 4.94 µM (inactive) | 5.37 µM (inactive) | 4 µM (inactive)
2 | COc1cc(C2c3cc4c(cc3OC(N3CCCC3)C2C)OCO4)cc(OC)c1O (centres undefined) | 16.1 µM (inactive) | 31.7 µM (inactive) | 9.98 µM (inactive) | 14 µM | 19.4 µM (inactive) | 4.88 µM (inactive) | 23 µM (inactive) | 19.4 µM (inactive) | 2.31 µM (inactive) | 23.4 µM (inactive) | 13.5 µM (inactive) | 59.6 µM (inactive) | 61.5 µM (inactive) | 20.8 µM (inactive) | 4.9 µM (inactive) | 23.4 µM (inactive) | 6.89 µM (inactive) | 11.6 µM (inactive) | 5.16 µM (inactive)
3 | CC1=C(C(=O)NCC(C)O)CC(C(=O)NCC(C)O)=C(C)N1 (centres undefined) | > 100 µM (inactive) | > 100 µM (inactive) | > 100 µM (inactive) | > 100 µM | > 100 µM (inactive) | > 100 µM (inactive) | > 100 µM (inactive) | 46.5 µM (inactive) | > 100 µM (inactive) | > 100 µM (inactive) | > 100 µM (inactive) | > 100 µM (inactive) | > 100 µM (inactive) | > 100 µM (inactive) | > 100 µM (inactive) | > 100 µM (inactive) | > 100 µM (inactive) | > 100 µM (inactive) | > 100 µM (inactive)
4 | COC(=O)/C=C\C(C#N)(C#N)/N=C/c1cc(Br)cs1 | 2.96 µM (inactive) | 7.31 µM (inactive) | 1.76 µM (inactive) | 2.71 µM | 2.19 µM (inactive) | 0.562 µM (active) | 2.06 µM (inactive) | 9.35 µM (inactive) | 2.67 µM (inactive) | 5.33 µM (inactive) | 7 µM (inactive) | 7.91 µM (inactive) | 6.84 µM (inactive) | 5.09 µM (inactive) | 6.3 µM (inactive) | 3.18 µM (inactive) | 1.15 µM (inactive) | 13.9 µM (inactive) | 17.7 µM (inactive)
5 | Cc1ccc(NC(=O)c2ccccc2C(=O)O)cc1C | > 100 µM (inactive) | > 100 µM (inactive) | > 100 µM (inactive) | > 100 µM | > 100 µM (inactive) | > 100 µM (inactive) | > 100 µM (inactive) | > 100 µM (inactive) | > 100 µM (inactive) | > 100 µM (inactive) | > 100 µM (inactive) | > 100 µM (inactive) | > 100 µM (inactive) | > 100 µM (inactive) | > 100 µM (inactive) | > 100 µM (inactive) | > 100 µM (inactive) | > 100 µM (inactive) | > 100 µM (inactive)
6 | COC(=O)C1OC(SCCN)C(O)C(O)C1O (centres undefined) | > 100 µM (inactive) | > 100 µM (inactive) | > 100 µM (inactive) | > 100 µM | > 100 µM (inactive) | > 100 µM (inactive) | > 100 µM (inactive) | > 100 µM (inactive) | > 100 µM (inactive) | > 100 µM (inactive) | > 100 µM (inactive) | > 100 µM (inactive) | > 100 µM (inactive) | > 100 µM (inactive) | > 100 µM (inactive) | > 100 µM (inactive) | > 100 µM (inactive) | > 100 µM (inactive) | > 100 µM (inactive)
